US9345738B2, “Methods for the prevention or treatment of no-reflow following ischemia/reperfusion injury” (Stealth BioTherapeutics Corp., priority 2010, dated 2016)
Non-standard residues stand in square brackets, D forms with d. No end group written: not given here.

Experiments:
[1] = system: plasma membrane of several mammalian cell types; details: Zhao et al., 2003; cited from earlier work
[2] = system: mu-opioid receptor; details: stated in the description, no data shown; cited from earlier work
[3] = system: rabbit heart, ischemia/reperfusion insult; test: Rabbit model of AMI: regional myocardial ischemia (30 min CAO) and reperfusion (3 h); risk zone, no-reflow zone and infarct size; type: in vivo, New Zealand White rabbit; details: for No-reflow/area at risk / No-reflow/area of necrosis: all hearts with AR >10% of LV, mean ± SEM; for Mean IA/AR: low dose
[4] = system: brain, ischemia/reperfusion insult; test: Mouse model of cerebral ischemia-reperfusion (occlusion of the middle cerebral artery); type: in vivo; details: wild type mice; 2-5 mg/kg ip at 0, 6, 24 and 48 h after ischemia; predicted
Procedure: Cerebral ischemia initiates a cascade of cellular and molecular events that lead to brain damage. One such event is an anatomic zone of no-reflow. Cerebral ischemia is induced by occlusion of the right middle cerebral artery for 30 min. Wild-type (WT) mice are given either saline vehicle (Veh) (ip) or D-Arg-2′,6′-Dmt-Lys-Phe-NH2 (acetate salt) (2-5 mg/kg) at 0, 6, 24 and 48 h after ischemia. Mice are killed 3 days after ischemia. The brains are sliced transversely into 6-8 sections. The slices are photographed under ultraviolet light to identify the region of no-reflow. The areas of no-reflow in each slice are digitized using Image J (supplier Rasband WS, Image J, National Institutes of Health). The areas in each slice are multiplied by the weight of the slice and the results will summed in order to obtain the mass of the no-reflow areas.
As such, the peptide D-Arg-2′,6′-Dmt-Lys-Phe-NH2 is effective in reducing the incidence of no-reflow caused by ischemia-reperfusion in the brain.

[5] = system: kidney, ischemia/reperfusion insult; test: Rat model of renal ischemia-reperfusion; type: in vivo, Sprague Dawley rat; details: rats; 3 mg/kg 30 min before ischemia and before reperfusion; 45 min ischemia and 24 h reperfusion; predicted
Procedure: Sprague Dawley rats (250-300 g) are assigned to three groups: (1) sham surgery group without I/R; (2) I/R+saline vehicle treatment; (3) I/R+D-Arg-2′,6′-Dmt-Lys-Phe-NH2 (acetate salt) treatment. D-Arg-2′,6′-Dmt-Lys-Phe-NH2 (acetate salt) (3 mg/kg, dissolved in saline) is administered to rats 30 min before ischemia and immediately before onset of reperfusion. The control rats are given saline alone on the same schedule. Rats are anesthetized with a mixture of ketamine (90 mg/kg, i.p.) and xylazine (4 mg/kg, i.p.). The left renal vascular pedicle is occluded temporarily using a micro-clamp for 30 or 45 min. At the end of the ischemic period, reperfusion is established by removing of the clamp. At that time, the contralateral right kidney is removed. After 24 h reperfusion, animals are sacrificed and blood samples were obtained by cardiac puncture. Renal function is determined by blood urea nitrogen (BUN) and serum creatinine (BioAssay Systems DIUR-500 and DICT-500).
Analysis of No-reflow Zones, and Necrosis. The kidneys are sliced transversely into 6-8 sections. The slices are photographed under ultraviolet light to identify the region of no reflow. The areas of no-reflow in each slice are digitized using Image J (supplier Rasband WS, Image J, National Institutes of Health). […]

[6] = system: anatomic zone of no-reflow in the heart; test: No-reflow phenomenon in humans with ST-segment elevation treated with PCI; type: in vivo, human; details: patients; iv bolus less than 10 min before direct stenting; vs placebo; predicted
Procedure: Men and women, 18 years of age or older, who present within 6 hours after the onset of chest pain, who have ST-segment elevation of more than 0.1 mV in two contiguous leads, and for whom the clinical decision is made to treat with percutaneous coronary intervention (PCI) are eligible for enrollment. Patients are eligible for the study whether they are undergoing primary PCI or rescue PCI. Occlusion of the culprit coronary artery (Thrombolysis in Myocardial Infarction [TIMI] flow grade 0) at the time of admission is also a criterion for inclusion.
Left ventricular and coronary angiography is performed with the use of standard techniques, just before revascularization. […]
The primary end point is the size of the anatomic zone of no-reflow as assessed by one or more imaging techniques. Re-flow phenomenon is assessed using myocardial contrast echocardiography, coronary angiography, myocardial blush, coronary doppler imaging, electrocardiography, nuclear imaging single-photon emission CT, using thallium or technetium-99m, or PET. […] Post-contrast delayed enhancement is used on day 4±1, day 30±3 and 6+1.5 months after successful PCI and stenting to quantify infracted myocardium. This is defined quantitatively by an intensity of the myocardial post-contrast signal that is more than 2 SD above that in a reference region of remote, non-infarcted myocardium within the same slice. […]

[7] = Group 1, N=15, infusion from 10′ after CAO
[8] = Group 2, N=17, infusion from 20′ after CAO
[9] = Group 3, N=17, infusion from 29′ after CAO

Substance: 2′,6′-Dmt-D-Arg-Phe-Lys-NH2
- penetration of the plasma membrane [1]: readily penetrates the plasma membrane of several mammalian cell types in an energy-independent manner

Substance: D-Arg-2′,6′-Dmt-Lys-Phe-NH2
- mu-opioid receptor agonist activity [2]: does not have mu-opioid receptor agonist activity
- No-reflow/area at risk [3, 7]: 0.23 ± 0.02
- No-reflow/area of necrosis [3, 7]: 0.74 ± 0.04
- No-reflow/area at risk [3, 8]: 0.21 ± 0.03
- No-reflow/area of necrosis [3, 8]: 0.63 ± 0.05
- No-reflow/area at risk [3, 9]: 0.21 ± 0.03
- No-reflow/area of necrosis [3, 9]: 0.70 ± 0.09
- no-reflow for any given risk zone size ([3]; rabbit AMI, ANCOVA, treated groups combined vs control p=0.0085): significantly reduced
- infarct size reduced by up to ([3]; rabbit AMI, in some experiments (Table 13; FIG. 5)): up to 44.7%
- infarct size reduced, average ([3]; rabbit AMI, in some experiments (not shown)): 11%
- Results: reduction of mean IA/AR from placebo ([3]; rabbit AMI, infusion started 10 min into 30 min of ischemia): ↓44.7% from placebo
- Results: reduction of mean IA/AR from placebo ([3]; rabbit AMI, infusion started 20 min into 30 min of ischemia): ↓25.5% from placebo
- Results: reduction of mean IA/AR from placebo ([3]; rabbit AMI, infusion started 30 min into ischemia immediately prior to reperfusion): ↓25.5% from placebo
- Mean IA/AR ([3]; rabbit AMI, iv infusion started 10 min into 30 min of ischemia): 20.7%
- Mean IA/AR ([3]; rabbit AMI, iv infusion started 20 min into 30 min of ischemia): 27.9%
- Mean IA/AR ([3]; rabbit AMI, iv infusion started 30 min into ischemia immediately prior to reperfusion): 26.7%
- reduction in the extent of no-reflow compared with control hearts (trend) ([3]; rabbit AMI, treated vs control): 21%
- Necrotic area divided by area-at-risk (AN/AR), mean ([3]; rabbits with AR/LV >15%, all active groups combined, N=48): 0.318
- anatomic zone of no-reflow in the brain [4]: prevent or reduce the anatomic zone of no-reflow
- infarct volume [4]: significant reduction in infarct volume
- anatomic zone of no-reflow in the kidney [5]: prevents or reduces the anatomic zone of no-reflow
- size of the anatomic zone of no-reflow [6]: smaller anatomic zone of no-reflow than that seen with placebo

Substance: F[dR]FK-NH2
- mu-opioid receptor agonist activity [2]: does not have mu-opioid receptor agonist activity

Substance: Tyr-D-Arg-Phe-Lys-NH2
- mu-opioid receptor agonist activity [2]: has mu-opioid receptor agonist activity
